From ChEMBL document CHEMBL1201862, “PubChem BioAssay data set” (2004)
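Five compound concentrations were applied to cells in 96-well plates for 48 hours; endpoints were derived by simple linear interpolation of the resulting dose-response curve. GI50 = concentration required for 50% inhibition of growth.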 Active and inactive are the calls of the source. No stated cut-off is given here; in the data, active = GI50 up to about 1.1 µM and inactive = higher.

Experiments:
Test in all cases: NCI tumour cell line growth inhibition, 48 h
SF-539 = test system: SF-539
OVCAR-4 = test system: OVCAR-4
A498 = test system: A498
NCI-H23 = test system: NCI-H23
SF-268 = test system: SF-268
SN12C = test system: SN12C
HOP-62 = test system: HOP-62
EKVX = test system: EKVX
ACHN = test system: ACHN
SK-MEL-28 = test system: SK-MEL-28
SNB-75 = test system: SNB-75
Malme-3M = test system: Malme-3M
UACC-62 = test system: UACC-62
SF-295 = test system: SF-295
MCF7 = test system: MCF7
M14 = test system: M14
TK-10 = test system: TK-10
HCT-15 = test system: HCT-15
MDA-MB-435 = test system: MDA-MB-435
SW-620 = test system: SW-620
RPMI-8226 = test system: RPMI-8226
DU-145 = test system: DU-145
OVCAR-5 = test system: OVCAR-5
A549 = test system: A549
KM12 = test system: KM12
NCI-H522 = test system: NCI-H522
HCT-116 = test system: HCT-116
UACC-257 = test system: UACC-257
PC-3 = test system: PC-3
NCI/ADR-RES = test system: NCI/ADR-RES
K562 = test system: K562
MDA-MB-231 = test system: MDA-MB-231
RXF 393 = test system: RXF 393
SR = test system: SR
CAKI-1 = test system: CAKI-1
LOX IMVI = test system: LOX IMVI
HCC 2998 = test system: HCC 2998
NCI-H226 = test system: NCI-H226
T47D = test system: T47D
OVCAR-8 = test system: OVCAR-8
SK-MEL-2 = test system: SK-MEL-2
COLO 205 = test system: COLO 205
786-0 = test system: 786-0
U-251 = test system: U-251
UO-31 = test system: UO-31
MOLT-4 = test system: MOLT-4
OVCAR-3 = test system: OVCAR-3
SK-MEL-5 = test system: SK-MEL-5
CCRF-CEM = test system: CCRF-CEM
SNB-19 = test system: SNB-19
HT-29 = test system: HT-29
IGROV-1 = test system: IGROV-1
NCI-H460 = test system: NCI-H460
HL-60 = test system: HL-60
SK-OV-3 = test system: SK-OV-3
MDA-N = test system: MDA-N

How did the GI50 (SF-539) turn out when `COC(C)(C)C1(O)CC[C@@H](C)CC1=O` (some centres undefined) was run?
Its GI50 is > 100 µM (inactive).

And the GI50 (OVCAR-4)?
The GI50 was > 100 µM (inactive).

And the GI50 (A498)?
Its GI50 is > 100 µM (inactive).

What about the GI50 (NCI-H23) of the same compound?
The GI50 was > 100 µM (inactive).

And the GI50 (SF-268)?
Its GI50 is > 100 µM (inactive).

And the GI50 (SN12C)?
Its GI50 is > 100 µM (inactive).

What about the GI50 (HOP-62) of the same compound?
Its GI50 is > 100 µM (inactive).

And the GI50 (EKVX)?
Its GI50 is > 100 µM (inactive).

And the GI50 (ACHN)?
Its GI50 is > 100 µM (inactive).

And the GI50 (SK-MEL-28)?
The GI50 was > 100 µM (inactive).

What about the GI50 (SNB-75) of the same compound?
Its GI50 is > 100 µM (inactive).

And the GI50 (Malme-3M)?
The GI50 was > 100 µM (inactive).

And the GI50 (UACC-62)?
The GI50 was > 100 µM (inactive).

And the GI50 (SF-295)?
Its GI50 is > 100 µM (inactive).

And the GI50 (MCF7)?
Its GI50 is > 100 µM (inactive).

And the GI50 (M14)?
The GI50 was > 100 µM (inactive).

What about the GI50 (TK-10) of the same compound?
The GI50 was > 100 µM (inactive).

And the GI50 (HCT-15)?
Its GI50 is greater than 100 µM.

What about the GI50 (MDA-MB-435) of the same compound?
The GI50 was > 100 µM (inactive).

What about the GI50 (SW-620) of the same compound?
Its GI50 is > 100 µM (inactive).

What about the GI50 (RPMI-8226) of the same compound?
The GI50 was > 100 µM (inactive).

And the GI50 (DU-145)?
The GI50 was > 100 µM (inactive).

And the GI50 (OVCAR-5)?
The GI50 was > 100 µM (inactive).

And the GI50 (A549)?
The GI50 was > 100 µM (inactive).

And the GI50 (KM12)?
The GI50 was > 100 µM (inactive).

What about the GI50 (NCI-H522) of the same compound?
The GI50 was > 100 µM (inactive).

What about the GI50 (HCT-116) of the same compound?
Its GI50 is > 100 µM (inactive).

What about the GI50 (UACC-257) of the same compound?
The GI50 was > 100 µM (inactive).

For `OC1(c2ccccc2)C2CCN(CC2)C1CN1CCOCC1` (centres undefined), which GI50 (PC-3) is on record?
The GI50 was > 100 µM (inactive).

And the GI50 (SF-539)?
Its GI50 is > 100 µM (inactive).

What about the GI50 (NCI/ADR-RES) of the same compound?
The GI50 was > 100 µM (inactive).

And the GI50 (K562)?
Its GI50 is > 100 µM (inactive).

What about the GI50 (OVCAR-4) of the same compound?
Its GI50 is > 100 µM (inactive).

And the GI50 (A498)?
Its GI50 is > 100 µM (inactive).

What about the GI50 (MDA-MB-231) of the same compound?
The GI50 was > 100 µM (inactive).

What about the GI50 (RXF 393) of the same compound?
Its GI50 is > 100 µM (inactive).

What about the GI50 (SR) of the same compound?
Its GI50 is > 100 µM (inactive).

What about the GI50 (NCI-H23) of the same compound?
The GI50 was > 100 µM (inactive).

What about the GI50 (SF-268) of the same compound?
The GI50 was > 100 µM (inactive).

What about the GI50 (SN12C) of the same compound?
The GI50 was > 100 µM (inactive).

What about the GI50 (CAKI-1) of the same compound?
Its GI50 is > 100 µM (inactive).

And the GI50 (LOX IMVI)?
The GI50 was > 100 µM (inactive).

And the GI50 (HOP-62)?
Its GI50 is > 100 µM (inactive).

And the GI50 (EKVX)?
The GI50 was > 100 µM (inactive).

And the GI50 (ACHN)?
The GI50 was > 100 µM (inactive).

What about the GI50 (SK-MEL-28) of the same compound?
Its GI50 is > 100 µM (inactive).

And the GI50 (SNB-75)?
Its GI50 is > 100 µM (inactive).

And the GI50 (HCC 2998)?
The GI50 was > 100 µM (inactive).

And the GI50 (NCI-H226)?
The GI50 was > 100 µM (inactive).

And the GI50 (Malme-3M)?
The GI50 was > 100 µM (inactive).

What about the GI50 (UACC-62) of the same compound?
The GI50 was > 100 µM (inactive).

What about the GI50 (T47D) of the same compound?
The GI50 was > 100 µM (inactive).

What about the GI50 (OVCAR-8) of the same compound?
The GI50 was > 100 µM (inactive).

And the GI50 (SF-295)?
The GI50 was > 100 µM (inactive).

And the GI50 (MCF7)?
The GI50 was > 100 µM (inactive).

What about the GI50 (SK-MEL-2) of the same compound?
Its GI50 is > 100 µM (inactive).

What about the GI50 (COLO 205) of the same compound?
The GI50 was > 100 µM (inactive).

What about the GI50 (M14) of the same compound?
Its GI50 is > 100 µM (inactive).

What about the GI50 (786-0) of the same compound?
The GI50 was > 100 µM (inactive).

What about the GI50 (U-251) of the same compound?
Its GI50 is > 100 µM (inactive).

And the GI50 (TK-10)?
The GI50 was > 100 µM (inactive).

What about the GI50 (UO-31) of the same compound?
The GI50 was > 100 µM (inactive).

And the GI50 (MOLT-4)?
Its GI50 is > 100 µM (inactive).

What about the GI50 (OVCAR-3) of the same compound?
Its GI50 is > 100 µM (inactive).

And the GI50 (HCT-15)?
Its GI50 is greater than 100 µM.

And the GI50 (SK-MEL-5)?
Its GI50 is > 100 µM (inactive).

And the GI50 (MDA-MB-435)?
The GI50 was > 100 µM (inactive).

And the GI50 (SW-620)?
The GI50 was > 100 µM (inactive).

And the GI50 (RPMI-8226)?
Its GI50 is > 100 µM (inactive).

What about the GI50 (DU-145) of the same compound?
The GI50 was > 100 µM (inactive).

What about the GI50 (OVCAR-5) of the same compound?
Its GI50 is > 100 µM (inactive).

And the GI50 (CCRF-CEM)?
The GI50 was > 100 µM (inactive).

What about the GI50 (SNB-19) of the same compound?
Its GI50 is > 100 µM (inactive).

What about the GI50 (A549) of the same compound?
Its GI50 is > 100 µM (inactive).

And the GI50 (KM12)?
Its GI50 is > 100 µM (inactive).

What about the GI50 (NCI-H522) of the same compound?
The GI50 was > 100 µM (inactive).

And the GI50 (HT-29)?
The GI50 was > 100 µM (inactive).

What about the GI50 (IGROV-1) of the same compound?
Its GI50 is > 100 µM (inactive).

What about the GI50 (NCI-H460) of the same compound?
The GI50 was > 100 µM (inactive).

And the GI50 (HL-60)?
The GI50 was > 100 µM (inactive).

And the GI50 (HCT-116)?
The GI50 was > 100 µM (inactive).

And the GI50 (SK-OV-3)?
Its GI50 is > 100 µM (inactive).

And the GI50 (UACC-257)?
Its GI50 is > 100 µM (inactive).

What does the source list for `CO[C@@H]1/C=C\C=C(/C)C(=O)NC2=CC(=O)C(NCCN(C)C)=C(C[C@@H](C)C[C@@H](OC)[C@@H](O)[C@H](C)/C=C(\C)[C@H]1OC(N)=O)C2=O`?
GI50 (OVCAR-4): 0.841 µM (active); GI50 (SN12C): < 0.01 µM (active); GI50 (LOX IMVI): < 0.01 µM (active); GI50 (HCC 2998): < 0.0118 µM (active); GI50 (Malme-3M): < 0.01 µM (active); GI50 (UACC-62): < 0.01 µM (active); GI50 (OVCAR-8): < 0.0191 µM (active); GI50 (MDA-N): < 10 nM (active); GI50 (COLO 205): < 0.01 µM (active); GI50 (M14): < 0.01 µM (active); GI50 (786-0): < 0.0204 µM (active); GI50 (U-251): < 0.01 µM (active); GI50 (UO-31): 0.652 µM (active); GI50 (MOLT-4): 0.0166 µM (active); GI50 (HCT-15): 0.345 µM; GI50 (MDA-MB-435): < 0.01 µM (active); GI50 (RPMI-8226): 0.121 µM (active); GI50 (CCRF-CEM): < 0.0144 µM (active); GI50 (SNB-19): < 0.0236 µM (active); GI50 (A549): < 0.0117 µM (active); GI50 (KM12): < 0.01 µM (active); GI50 (IGROV-1): < 0.01 µM (active); GI50 (NCI-H460): < 0.01 µM (active); GI50 (HCT-116): < 0.0132 µM (active); GI50 (SK-OV-3): 0.0121 µM (active); GI50 (UACC-257): 0.0121 µM (active)
